According to patent US8716303B2, “N-(hetero)aryl-pyrrolidine derivatives of pyrazol-4-yl-pyrrolo[2,3-d]pyrimidines and pyrrol-3-yl-pyrrolo[2,3-d]pyrimidines as janus kinase inhibitors” (Incyte Corporation, priority 2009, dated 2014):
Structures can show the parent of a compound that is named as a salt.

Key:
[1] = biological target: T1, human JAK1 (a.a. 837-1142) (Homo sapiens, UniProt P23458); test: In vitro JAK kinase assay (HTRF, phosphorylation of a biotinylated peptide), JAK1; assay type: biochemical; details: Assay Conditions 1 mM ATP
T1 construct: human JAK1 (a.a. 837-1142); His tag (N); made in house; host or cells: insect cells (baculovirus)
T1 sequence (P23458 849-1154): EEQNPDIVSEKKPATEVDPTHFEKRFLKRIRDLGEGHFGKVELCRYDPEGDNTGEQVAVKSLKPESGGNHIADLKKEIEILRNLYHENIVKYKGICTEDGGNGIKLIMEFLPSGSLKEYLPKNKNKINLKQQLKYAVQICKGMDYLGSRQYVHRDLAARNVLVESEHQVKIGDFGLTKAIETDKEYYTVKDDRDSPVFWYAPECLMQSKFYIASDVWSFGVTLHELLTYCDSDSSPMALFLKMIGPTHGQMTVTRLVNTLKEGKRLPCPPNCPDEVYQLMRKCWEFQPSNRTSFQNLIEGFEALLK
Summary of the method: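 His-tagged catalytic domains (JAK1 a.a. 837-1142, JAK2 a.a. 828-1132) from insect cells phosphorylate 500 nM biotinylated peptide in 50 mM Tris pH 7.8, 100 mM NaCl, 5 mM DTT; ATP at Km (90 μM JAK1, 30 μM JAK2) or 1 mM, as indicated. 1 h at RT; EDTA stop, HTRF readout; IC50s.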

Jak2 (a.a. 828-1132) = biological target: T2, Jak2 (a.a. 828-1132) (Homo sapiens, UniProt O60674); test: In vitro JAK kinase assay (HTRF, phosphorylation of a biotinylated peptide), JAK2, reported as JAK2/JAK1 ratio; assay type: biochemical; details: Assay Conditions 1 mM ATP
T2 construct: Jak2 (a.a. 828-1132); His tag (N); made in house; host or cells: insect cells (baculovirus)
T2 sequence (O60674 828-1132): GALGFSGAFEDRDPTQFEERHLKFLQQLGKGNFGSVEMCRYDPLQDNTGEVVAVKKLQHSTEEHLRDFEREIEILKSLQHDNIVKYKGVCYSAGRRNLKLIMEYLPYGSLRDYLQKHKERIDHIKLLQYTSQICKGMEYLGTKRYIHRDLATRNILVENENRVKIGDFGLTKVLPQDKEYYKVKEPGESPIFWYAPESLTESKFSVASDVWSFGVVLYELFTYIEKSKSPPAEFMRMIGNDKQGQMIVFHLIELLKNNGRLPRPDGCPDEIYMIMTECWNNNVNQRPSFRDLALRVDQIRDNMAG

| IC50 [1] [nM] | JAK2/JAK1 IC50 ratio (Jak2 (a.a. 828-1132)) | Compound |
| --- | --- | --- |
| < 50 | 8.1 | N#CC[C@@H]([C@H]1CCN(c2nc(S(=O)(=O)CC(F)(F)F)c(F)cc2F)C1)n1cc(-c2ncnc3[nH]ccc23)cn1 [Example 131, (3S)-3-((3S)-1-{3,5-difluoro-6-[(2,2,2-trifluoroethyl)-sulfonyl]pyridin-2-yl}pyrrolidin-3-yl)-3-[4-(7H-pyrrolo[2,3-d]pyrimidin-4-yl)-1H-pyrazol-1-yl]propanenitrile trifluoroacetate] |
| < 50 | 8.9 | CS(=O)(=O)c1nc(N2CC[C@H](C(CF)n3cc(-c4ncnc5[nH]ccc45)cn3)C2)c(F)cc1F (stereo partly drawn) [Example 132, 4-[1-(1-{(3S)-1-[3,5-difluoro-6-(methylsulfonyl)pyridin-2-yl]pyrrolidin-3-yl}-2-fluoroethyl)-1H-pyrazol-4-yl]-7H-pyrrolo [2,3-d]pyrimidine trifluoroacetate] |
| 50 to 100 | 3 | CS(=O)(=O)c1ccc(F)c(N2CC[C@H]([C@H](CC#N)n3cc(-c4ncnc5[nH]ccc45)cn3)C2)n1 [Example 133, (3S)-3-{(3S)-1-[3-fluoro-6-(methylsulfonyl)pyridin-2-yl]pyrrolidin-3-yl}-3-[4-(7H-pyrrolo [2,3-d]pyrimidin-4-yl)-1H-pyrazol-1-yl] propanenitrile trifluoroacetate] |
| < 50 | 17 | CS(=O)(=O)c1nc(F)c(N2CC[C@H]([C@H](CC#N)n3cc(-c4ncnc5[nH]ccc45)cn3)C2)cc1F [Example 134, (3S)-3-{(3S)-1-[2,5-difluoro-6-(methylsulfonyl)pyridin-3-yl]pyrrolidin-3-yl}-3-[4-(7H-pyrrolo[2,3-d]pyrimidin-4-yl)-1H-pyrazol-1-yl]propanenitrile trifluoroacetate] |
| < 50 | >5 | CC(F)c1ccnc(N2CC[C@H]([C@H](CC#N)n3cc(-c4ncnc5[nH]ccc45)cn3)C2)c1C#N (stereo partly drawn) [Example 136, 2-((3S)-3-{(1S)-2-cyano-1-[4-(7H-pyrrolo[2,3-d]pyrimidin-4-yl)-1H-pyrazol-1-yl]ethyl}pyrrolidin-1-yl)-4-(1-fluoroethyl)nicotinonitrile trifluoroacetate] |
| < 50 | 17.5 | N#CC[C@@H]([C@H]1CCN(c2ncc(C(F)F)nc2C#N)C1)n1cc(-c2ncnc3[nH]ccc23)cn1 [Example 138, 3-((3S)-3-{(1S)-2-cyano-1-[4-(7H-pyrrolo[2,3-d]pyrimidin-4-yl)-1H-pyrazol-1-yl]ethyl}pyrrolidin-1-yl)-6-(difluoromethyl)pyrazine-2-carbonitrile trifluoroacetate] |
| < 50 | 17.4 | N#CC[C@@H]([C@H]1CCN(c2ncc(CO)nc2C#N)C1)n1cc(-c2ncnc3[nH]ccc23)cn1 [Example 140, 3-((3S)-3-{(1S)-2-cyano-1-[4-(7H-pyrrolo[2,3-d]pyrimidin-4-yl)-1H-pyrazol-1-yl]ethyl}pyrrolidin-1-yl)-6-(hydroxymethyl)pyrazine-2-carbonitrile trifluoroacetate] |
| < 50 | 16.2 | COCc1cnc(N2CC[C@H]([C@H](CC#N)n3cc(-c4ncnc5[nH]ccc45)cn3)C2)c(C#N)n1 [Example 141, 3-((3S)-3-{(1S)-2-cyano-1-[4-(7H-pyrrolo[2,3-d]pyrimidin-4-yl)-1H-pyrazol-1-yl]ethyl}pyrrolidin-1-yl)-6-(methoxymethyl)pyrazine-2-carbonitrile trifluoroacetate] |
| < 50 | 14.2 | N#CC[C@@H]([C@H]1CCN(c2ncc(Br)nc2C#N)C1)n1cc(-c2ncnc3[nH]ccc23)cn1 [Example 142, 6-bromo-3-(3S)-3-{(1S)-2-cyano-1-[4-(7H-pyrrolo[2,3-d]pyrimidin-4-yl)-1H-pyrazol-1-yl]ethyl}pyrrolidin-1-yl)pyrazine-2-carbonitrile trifluoroacetate] |
| < 50 | >4.5 | C#Cc1cnc(N2CC[C@H]([C@H](CC#N)n3cc(-c4ncnc5[nH]ccc45)cn3)C2)c(C#N)n1 [Example 143, 3-((3S)-3-{(1S)-2-cyano-1-[4-(7H-pyrrolo[2,3-d]pyrimidin-4-yl)-1H-pyrazol-1-yl]ethyl}pyrrolidin-1-yl)-6-ethynylpyrazine-2-carbonitrile trifluoroacetate] |
| < 50 | >6.9 | CCc1cnc(N2CC[C@H]([C@H](CC#N)n3cc(-c4ncnc5[nH]ccc45)cn3)C2)c(C#N)n1 [Example 144, 3-((3S)-3-{(1S)-2-cyano-1-[4-(7H-pyrrolo[2,3-d]pyrimidin-4-yl)-1H-pyrazol-1-yl]ethyl}pyrrolidin-1-yl)-6-ethylpyrazine-2-carbonitrile trifluoroacetate] |
| < 50 | >11.1 | Cc1cnc(N2CC[C@H]([C@H](CC#N)n3cc(-c4ncnc5[nH]ccc45)cn3)C2)c(C#N)n1 [Example 145, 3-((3S)-3-{(1S)-2-cyano-1-[4-(7H-pyrrolo[2,3-d]pyrimidin-4-yl)-1H-pyrazol-1-yl]ethyl}pyrrolidin-1-yl)-6-methylpyrazine-2-carbonitrile trifluoroacetate] |
| < 50 | >4.8 | CC(O)c1cnc(N2CC[C@H]([C@H](CC#N)n3cc(-c4ncnc5[nH]ccc45)cn3)C2)c(C#N)n1 (stereo partly drawn) [Example 146, 3-((3S)-3-{(1S)-2-cyano-1-[4-(7H-pyrrolo[2,3-d]pyrimidin-4-yl)-1H-pyrazol-1-yl]ethyl}pyrrolidin-1-yl)-6-(1-hydroxyethyl)pyrazine-2-carbonitrile trifluoroacetate] |
